Source: ChEMBL document CHEMBL5576145, “Domoic Acid as a Lead for the Discovery of the First Selective Ligand for Kainate Receptor Subtype 5 (GluK5)” (J Med Chem, 2024)

Experiments:
[1] = molecular target: Glutamate receptor 4 (Rattus norvegicus) (UniProt P19493); experiment: Displacement of [3H]-AMPA from AMPA in rat cortical synaptosomes assessed as remaining activity at 10 uM incubated for 30 mins by TopCount microplate scintillation counting method relative to control; format: subcellular; details: Cortex, Synaptosome
Chain of Glutamate receptor 4 (Rattus norvegicus) (P19493 whole entry): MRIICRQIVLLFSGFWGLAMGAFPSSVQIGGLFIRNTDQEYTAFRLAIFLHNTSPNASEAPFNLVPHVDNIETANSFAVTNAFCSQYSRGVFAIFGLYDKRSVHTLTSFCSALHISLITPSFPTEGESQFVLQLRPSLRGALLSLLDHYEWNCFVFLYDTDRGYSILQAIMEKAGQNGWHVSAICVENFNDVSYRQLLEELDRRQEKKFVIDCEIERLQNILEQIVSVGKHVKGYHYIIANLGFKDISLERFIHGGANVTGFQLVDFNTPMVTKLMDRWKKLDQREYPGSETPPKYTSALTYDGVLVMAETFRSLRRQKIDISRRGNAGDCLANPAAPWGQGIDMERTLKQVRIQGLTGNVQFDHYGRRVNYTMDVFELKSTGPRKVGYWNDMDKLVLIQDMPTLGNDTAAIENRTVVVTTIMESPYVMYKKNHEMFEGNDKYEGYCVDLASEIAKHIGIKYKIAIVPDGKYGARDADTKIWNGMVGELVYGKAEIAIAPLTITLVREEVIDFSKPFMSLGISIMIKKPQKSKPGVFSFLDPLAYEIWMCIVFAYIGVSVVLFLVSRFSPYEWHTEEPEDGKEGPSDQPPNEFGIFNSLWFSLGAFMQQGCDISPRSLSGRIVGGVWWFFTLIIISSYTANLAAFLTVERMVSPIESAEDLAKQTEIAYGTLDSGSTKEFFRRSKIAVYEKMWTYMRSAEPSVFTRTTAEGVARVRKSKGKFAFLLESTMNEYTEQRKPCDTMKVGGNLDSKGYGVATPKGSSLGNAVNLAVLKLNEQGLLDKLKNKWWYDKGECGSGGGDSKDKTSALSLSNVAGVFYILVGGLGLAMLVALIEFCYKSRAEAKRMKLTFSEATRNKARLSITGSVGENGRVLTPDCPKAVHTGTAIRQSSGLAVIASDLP

[2] = Displacement of [3H]-KA from KA in rat cortical synaptosomes incubated for 60 mins by TopCount microplate scintillation counting method; format: subcellular, Cortex, Synaptosome
[3] = molecular target: Glutamate NMDA receptor (Rattus norvegicus) (UniProt P35439+Q00959+Q00960+Q00961+Q62645+Q8VHN2+Q9R1M7); experiment: Displacement of [3H]CGP39653 from NMDA receptor in rat cortical synaptosomes assessed as remaining activity at 10 uM incubated for 60 mins by Topcount microplate scintillation counting method relative to control; format: subcellular; details: Cortex, Synaptosome
[4] = molecular target: Glutamate receptor ionotropic, kainate 1 (Rattus norvegicus) (UniProt P22756); experiment: Displacement of [3H]-NF608 from rat GluK1 assessed as percent of radioligand binding at 10 uM relative to control
Chain of Glutamate receptor ionotropic, kainate 1 (Rattus norvegicus) (P22756 whole entry): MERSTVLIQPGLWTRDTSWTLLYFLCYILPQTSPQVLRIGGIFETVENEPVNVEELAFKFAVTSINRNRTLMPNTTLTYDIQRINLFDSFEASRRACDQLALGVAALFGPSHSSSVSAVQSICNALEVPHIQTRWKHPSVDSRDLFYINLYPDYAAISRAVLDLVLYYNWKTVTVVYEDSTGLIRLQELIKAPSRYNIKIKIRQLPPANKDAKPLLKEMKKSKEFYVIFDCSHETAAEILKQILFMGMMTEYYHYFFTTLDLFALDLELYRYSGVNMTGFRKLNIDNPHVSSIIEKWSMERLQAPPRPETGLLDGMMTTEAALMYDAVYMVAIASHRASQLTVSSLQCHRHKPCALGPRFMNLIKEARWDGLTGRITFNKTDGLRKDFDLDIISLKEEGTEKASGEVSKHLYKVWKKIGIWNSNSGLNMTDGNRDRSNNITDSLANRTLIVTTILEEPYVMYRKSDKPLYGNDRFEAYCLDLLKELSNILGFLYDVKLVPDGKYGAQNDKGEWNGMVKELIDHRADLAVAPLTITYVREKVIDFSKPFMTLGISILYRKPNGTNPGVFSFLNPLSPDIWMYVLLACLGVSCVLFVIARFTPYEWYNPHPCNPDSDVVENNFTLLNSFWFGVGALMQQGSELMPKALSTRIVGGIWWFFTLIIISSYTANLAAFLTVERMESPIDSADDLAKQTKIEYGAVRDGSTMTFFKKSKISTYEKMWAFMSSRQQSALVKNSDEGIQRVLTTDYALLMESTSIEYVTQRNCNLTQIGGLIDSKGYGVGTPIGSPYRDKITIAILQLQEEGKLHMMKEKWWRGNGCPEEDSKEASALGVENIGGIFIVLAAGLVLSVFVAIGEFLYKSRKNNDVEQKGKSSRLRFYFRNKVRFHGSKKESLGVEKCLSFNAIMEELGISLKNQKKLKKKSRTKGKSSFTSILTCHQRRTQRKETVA

[5] = molecular target: Glutamate receptor ionotropic, kainate 2 (Rattus norvegicus) (UniProt P42260); experiment: Displacement of [3H]-KA from rat GluK2 assessed as percentage of radioligand binding at 10 uM relative to control
Chain of Glutamate receptor ionotropic, kainate 2 (Rattus norvegicus) (P42260 whole entry): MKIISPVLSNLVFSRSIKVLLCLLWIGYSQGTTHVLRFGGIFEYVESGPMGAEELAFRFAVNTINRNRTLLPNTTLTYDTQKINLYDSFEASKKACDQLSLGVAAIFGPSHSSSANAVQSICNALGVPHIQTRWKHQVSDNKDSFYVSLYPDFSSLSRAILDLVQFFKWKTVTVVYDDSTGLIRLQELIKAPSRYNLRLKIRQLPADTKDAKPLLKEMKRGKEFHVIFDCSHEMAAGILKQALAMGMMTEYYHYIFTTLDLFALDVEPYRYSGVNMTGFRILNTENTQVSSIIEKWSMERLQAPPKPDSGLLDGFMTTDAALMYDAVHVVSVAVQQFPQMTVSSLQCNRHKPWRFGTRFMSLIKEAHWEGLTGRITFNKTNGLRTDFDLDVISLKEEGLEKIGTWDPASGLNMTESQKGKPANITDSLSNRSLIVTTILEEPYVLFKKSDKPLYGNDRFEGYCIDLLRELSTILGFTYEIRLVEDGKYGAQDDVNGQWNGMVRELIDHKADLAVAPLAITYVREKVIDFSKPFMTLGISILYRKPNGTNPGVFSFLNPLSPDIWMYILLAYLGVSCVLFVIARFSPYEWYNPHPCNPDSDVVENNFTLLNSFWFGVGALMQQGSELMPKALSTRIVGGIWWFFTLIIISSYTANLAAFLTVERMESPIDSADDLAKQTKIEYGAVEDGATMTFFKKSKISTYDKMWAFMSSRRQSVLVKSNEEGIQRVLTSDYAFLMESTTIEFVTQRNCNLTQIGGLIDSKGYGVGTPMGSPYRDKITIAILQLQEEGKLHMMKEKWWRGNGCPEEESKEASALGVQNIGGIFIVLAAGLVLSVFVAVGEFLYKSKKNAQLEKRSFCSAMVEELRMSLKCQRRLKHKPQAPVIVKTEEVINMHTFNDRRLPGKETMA

[6] = molecular target: Glutamate receptor ionotropic, kainate 3 (Rattus norvegicus) (UniProt P42264); experiment: Displacement of [3H]-KA from rat GluK3 assessed as percentage of radioligand binding at 10 uM relative to control
Chain of Glutamate receptor ionotropic, kainate 3 (Rattus norvegicus) (P42264 whole entry): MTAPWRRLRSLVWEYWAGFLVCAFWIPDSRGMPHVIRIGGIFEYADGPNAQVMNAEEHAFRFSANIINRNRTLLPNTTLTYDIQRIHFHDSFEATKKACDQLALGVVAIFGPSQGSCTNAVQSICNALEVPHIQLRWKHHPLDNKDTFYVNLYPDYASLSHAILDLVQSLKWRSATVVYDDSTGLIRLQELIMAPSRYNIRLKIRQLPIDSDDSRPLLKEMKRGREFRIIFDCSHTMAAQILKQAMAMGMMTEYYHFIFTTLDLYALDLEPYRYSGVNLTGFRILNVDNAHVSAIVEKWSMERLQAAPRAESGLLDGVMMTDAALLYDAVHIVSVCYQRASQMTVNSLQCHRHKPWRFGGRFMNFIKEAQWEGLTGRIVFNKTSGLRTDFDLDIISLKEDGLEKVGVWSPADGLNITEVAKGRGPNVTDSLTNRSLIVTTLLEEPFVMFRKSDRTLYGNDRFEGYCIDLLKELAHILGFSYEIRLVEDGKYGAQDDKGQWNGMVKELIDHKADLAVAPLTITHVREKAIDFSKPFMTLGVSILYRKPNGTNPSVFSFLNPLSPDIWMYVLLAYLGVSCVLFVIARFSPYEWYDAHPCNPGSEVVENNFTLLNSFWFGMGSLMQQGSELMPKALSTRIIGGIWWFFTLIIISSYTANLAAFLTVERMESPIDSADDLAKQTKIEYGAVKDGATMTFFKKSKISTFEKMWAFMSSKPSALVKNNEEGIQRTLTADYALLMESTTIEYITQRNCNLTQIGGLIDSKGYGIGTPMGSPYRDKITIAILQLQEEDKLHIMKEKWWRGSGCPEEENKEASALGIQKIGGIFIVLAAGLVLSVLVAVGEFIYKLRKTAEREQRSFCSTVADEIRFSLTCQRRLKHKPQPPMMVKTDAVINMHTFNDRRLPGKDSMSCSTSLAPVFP

[7] = molecular target: T1, Glutamate receptor ionotropic, kainate 5 (Mus musculus, UniProt Q61626); experiment: Displacement of [3H]-kainate from mouse GluK5 expressed in Sf9 cell membrane incubated for 2 hrs by scintillation counting method; format: cell membranes
T1 sequence (Q61626 whole entry): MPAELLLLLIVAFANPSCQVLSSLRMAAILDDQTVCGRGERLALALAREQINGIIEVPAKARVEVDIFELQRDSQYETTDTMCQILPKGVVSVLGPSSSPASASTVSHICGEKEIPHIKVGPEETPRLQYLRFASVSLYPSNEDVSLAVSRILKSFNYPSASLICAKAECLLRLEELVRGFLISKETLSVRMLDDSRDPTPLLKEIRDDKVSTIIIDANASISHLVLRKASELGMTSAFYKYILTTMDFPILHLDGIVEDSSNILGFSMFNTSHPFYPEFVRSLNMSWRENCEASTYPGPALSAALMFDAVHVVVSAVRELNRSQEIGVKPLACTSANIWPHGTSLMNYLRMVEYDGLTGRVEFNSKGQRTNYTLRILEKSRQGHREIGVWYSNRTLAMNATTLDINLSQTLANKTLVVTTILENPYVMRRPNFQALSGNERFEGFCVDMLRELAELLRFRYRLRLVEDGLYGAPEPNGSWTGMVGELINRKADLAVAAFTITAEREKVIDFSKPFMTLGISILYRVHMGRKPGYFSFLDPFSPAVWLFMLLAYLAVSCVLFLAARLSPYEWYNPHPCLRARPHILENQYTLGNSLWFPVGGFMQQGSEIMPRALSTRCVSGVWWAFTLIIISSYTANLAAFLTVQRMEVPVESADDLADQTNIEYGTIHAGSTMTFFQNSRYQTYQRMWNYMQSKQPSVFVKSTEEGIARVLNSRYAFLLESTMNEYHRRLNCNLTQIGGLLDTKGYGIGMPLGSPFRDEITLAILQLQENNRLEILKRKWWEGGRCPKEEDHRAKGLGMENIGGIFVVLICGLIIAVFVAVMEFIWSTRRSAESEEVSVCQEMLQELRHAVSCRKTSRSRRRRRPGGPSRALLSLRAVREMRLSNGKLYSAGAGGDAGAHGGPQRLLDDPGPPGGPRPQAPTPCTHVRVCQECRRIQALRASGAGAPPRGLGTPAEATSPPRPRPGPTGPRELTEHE

[8] = molecular target: Glutamate receptor ionotropic, kainate 1 (Rattus norvegicus, UniProt P22756); experiment: Displacement of [3H]-NF608 from rat GluK1
Chain of Glutamate receptor ionotropic, kainate 1 (P22756 whole entry): as the sequence (P22756 whole entry) above

[9] = molecular target: Glutamate receptor ionotropic, kainate 2 (Rattus norvegicus, UniProt P42260); experiment: Displacement of [3H]-KA from rat GluK2
Chain of Glutamate receptor ionotropic, kainate 2 (P42260 whole entry): as the sequence (P42260 whole entry) above

[10] = molecular target: Glutamate receptor ionotropic, kainate 3 (Rattus norvegicus, UniProt P42264); experiment: Displacement of [3H]-KA from rat GluK3
Chain of Glutamate receptor ionotropic, kainate 3 (P42264 whole entry): as the sequence (P42264 whole entry) above

Glutamate NMDA receptor = experiment: Displacement of [3H]CGP39653 from NMDA receptor in rat cortical synaptosomes incubated for 60 mins by Topcount microplate scintillation counting method; format: subcellular, Cortex, Synaptosome
Glutamate receptor 4 [11] = molecular target: T2, Glutamate receptor 4 (Rattus norvegicus, UniProt P19493); experiment: Displacement of [3H]-AMPA from AMPA in rat brain membrane preincubated for 15 mins followed by [3H]-AMPA addition and measured after 40 mins by scintillation counting method; format: cell membranes
T2 sequence (P19493 whole entry): as the sequence (P19493 whole entry) above

[12] = Displacement of [3H]-Kainic acid from KA in rat brain membrane preincubated for 15 mins followed by [3H]-Kainic acid addition and measured after 1 hr by scintillation counting method; format: cell membranes
Rattus norvegicus = species on record: Rattus norvegicus; experiment: Displacement of [3H]-KA from KA in rat cortical synaptosomes assessed as remaining activity at 10 uM incubated for 60 mins by TopCount microplate scintillation counting method relative to control; format: subcellular; details: Cortex, Synaptosome
[13] = molecular target: T3, Glutamate receptor ionotropic, kainate 5 (Mus musculus) (UniProt Q61626); experiment: Displacement of [3H]-kainate from mouse GluK5 expressed in Sf9 cell membrane assessed as remaining activity at 10 uM incubated for 2 hrs by scintillation counting method relative to control; format: cell membranes
T3 sequence (whole entry): T1 sequence (Q61626 whole entry)

[14] = Binding affinity to KA receptor in rat synaptosomes; format: subcellular, Synaptosome
Glutamate receptor 4 [15] = molecular target: T2, Glutamate receptor 4; experiment: Displacement of [3H]-AMPA from AMPA in rat synaptic membrane; format: subcellular, Synaptosome
[16] = Displacement of [3H]-Kainic acid from KA in rat synaptic membrane; format: subcellular, Synaptosome
Hippocampus = experiment: Reduction in CA1 spike amplitude in Wistar rat hippocampal slices after 20 mins of toxin administration; format: functional, tissue-based

SMILES | Activity [4] [%] | Activity [5] [%] | Activity [6] [%] | Ki [7] [µM] | further results
O=C(O)C[C@@H]1[C@@H](C(=O)O)NC[C@@H]1n1nncc1CCc1ccccc1 | 94 | 97 | 90 | 5.57 | Activity [1]: 98%; IC50 [2]: 35 µM; Activity [3]: 98%
O=C(O)C[C@@H]1[C@@H](C(=O)O)NC[C@@H]1n1nncc1-c1ccc(F)cc1F | 96 | 73 | 90 | 5.35 | 
O=C(O)C[C@@H]1[C@@H](C(=O)O)NC[C@@H]1n1nncc1-c1ccccn1 |  |  |  | 0.258 | Ki [8]: 11.5 µM; Ki [9]: 7.76 µM; Ki [10]: 3.75 µM
Nc1cccc(-c2cn([C@H]3CN[C@H](C(=O)O)[C@H]3CC(=O)O)nn2)c1 | 97 | 102 | 93 | 3.25 | 
COc1cccc(-c2cnnn2[C@H]2CN[C@H](C(=O)O)[C@H]2CC(=O)O)c1 | 88 | 89 | 74 | 1.02 | 
O=C(O)C[C@@H]1[C@@H](C(=O)O)NC[C@@H]1n1nncc1-c1cccc(C(F)(F)F)c1 | 92 | 76 | 90 | 2.15 | Activity [1]: 80%; IC50 [2]: 5.1 µM; Ki (Glutamate NMDA receptor): 101 µM
O=C(O)C[C@@H]1[C@@H](C(=O)O)NC[C@@H]1n1nncc1CO | 94 | 76 | 84 | 7.97 | Activity [1]: 86%; IC50 [2]: 22 µM; Activity [3]: 102%
C/C(=C/C=C\[C@@H](C)C(=O)O)[C@H]1CN[C@H](C(=O)O)[C@H]1CC(=O)O |  |  |  |  | IC50 (Glutamate receptor 4 [11]): 17 µM; IC50 [12]: 0.028 µM
C/C(=C/CC[C@@H](C)C(=O)O)[C@H]1CN[C@H](C(=O)O)[C@H]1CC(=O)O |  |  |  |  | IC50 (Glutamate receptor 4 [11]): 3.6 µM; IC50 [12]: 0.009 µM
O=C(O)C[C@@H]1[C@@H](C(=O)O)NC[C@@H]1n1nncc1-c1cccc(F)c1 | 60 | 76 | 58 | 1.76 | 
O=C(O)CCCc1cnnn1[C@H]1CN[C@H](C(=O)O)[C@H]1CC(=O)O |  |  |  | 0.483 | Activity [1]: 86%; IC50 [2]: 2.3 µM; Activity [3]: 90%; Ki [8]: 10.8 µM; Ki [9]: 7.79 µM; Ki [10]: 6.1 µM
NCc1cnnn1[C@H]1CN[C@H](C(=O)O)[C@H]1CC(=O)O | 95 | 79 | 81 |  | Activity [1]: 100%; Activity (Rattus norvegicus): 76%; Activity [3]: 92%; Activity [13]: 85%
O=C(O)C[C@@H]1[C@@H](C(=O)O)NC[C@@H]1n1nncc1-c1ccc(C(F)(F)F)cc1 | 95 | 103 | 85 |  | Activity [13]: 62%
Cc1nc([C@H]2CN[C@H](C(=O)O)[C@H]2CC(=O)O)cs1 |  |  |  |  | IC50 [14]: 0.006 µM
C=C(C)[C@H]1CN[C@H](C(=O)O)[C@H]1CC(=O)O [KAINIC ACID] |  |  |  |  | IC50 (Glutamate receptor 4 [15]): 1.9 µM; IC50 [16]: 0.012 µM
O=C(O)C[C@@H]1[C@@H](C(=O)O)NC[C@@H]1n1nncc1-c1cccnc1 | 98 | 92 | 80 |  | Activity [13]: 47%
O=C(O)C[C@@H]1[C@@H](C(=O)O)NC[C@@H]1n1nncc1Cc1ccccc1 | 99 | 92 | 94 | 11.1 | Activity [1]: 86%; Activity (Rattus norvegicus): 79%; Activity [3]: 87%
O=C(O)C[C@@H]1[C@@H](C(=O)O)NC[C@@H]1n1nncc1C(=O)O | 79 | 85 | 79 |  | Activity [1]: 85%; Activity (Rattus norvegicus): 80%; Activity [3]: 66%; Activity [13]: 89%
O=C(O)C[C@@H]1[C@@H](C(=O)O)NC[C@@H]1n1nncc1CN1CCS(=O)(=O)CC1 | 97 | 80 | 91 |  | Activity [13]: 94%
O=C(O)C[C@@H]1[C@@H](C(=O)O)NC[C@@H]1c1ccccc1O |  |  |  |  | IC50 (Glutamate receptor 4 [15]): 0.13 µM; IC50 [16]: 0.058 µM
O=C(O)C[C@@H]1[C@@H](C(=O)O)NC[C@@H]1c1ccc(C(=O)O)[nH]c1=O |  |  |  |  | IC50 (Glutamate receptor 4 [15]): 0.06 µM; IC50 [16]: 0.33 µM
C/C(=C\C=C\[C@@H](C)C(=O)O)[C@H]1CN[C@H](C(=O)O)[C@H]1CC(=O)O [DOMORIC ACID] |  |  |  |  | IC50 (Glutamate receptor 4 [11]): 12 µM; IC50 [12]: 0.94 µM
CCc1ccc(-c2cnnn2[C@H]2CN[C@H](C(=O)O)[C@H]2CC(=O)O)cc1 | 95 | 92 | 83 |  | Activity [13]: 45%
C/C(=C/C=C/[C@H](C)C(=O)O)[C@H]1CN[C@H](C(=O)O)[C@H]1CC(=O)O |  |  |  |  | IC50 (Glutamate receptor 4 [11]): 5.7 µM; IC50 [12]: 0.028 µM
C[C@H](CCC[C@@H](C)[C@H]1CN[C@H](C(=O)O)[C@H]1CC(=O)O)C(=O)O |  |  |  |  | IC50 (Glutamate receptor 4 [11]): > 100 µM; IC50 [12]: 27 µM
C=C(CC/C=C(\C)C(=O)O)[C@H]1CN[C@H](C(=O)O)[C@H]1CC(=O)O |  |  |  |  | EC50 (Hippocampus): 3.71 µM
Nc1nc([C@H]2CN[C@H](C(=O)O)[C@H]2CC(=O)O)cs1 |  |  |  |  | IC50 [14]: 0.005 µM
